In article PMC8856561, “Pharmacological and genetic activation of cAMP synthesis disrupts cholesterol utilization in Mycobacterium tuberculosis” (PLoS Pathogens, 2022):
≈ marks a conversion by molar mass, not a printed value. Like-named read-outs stand apart in the source and are kept apart here.

Assays:
[1] = system: Mtb in murine macrophages; experiment: Mtb replication in macrophages (intramacrophage EC50); assay type: cell-based; details: Mycobacterium tuberculosis, Macrophage
[2] = system: Mtb; experiment: microbe, parasite or virus in culture; assay type: cell-based, Mycobacterium tuberculosis; details: Mycobacterium tuberculosis, cholesterol media
[3] = system: Mtb; experiment: microbe, parasite or virus in culture; assay type: cell-based; details: Mycobacterium tuberculosis; read-out: 7H9 OADC EC50
[4] = system: Mtb; experiment: microbe, parasite or virus in culture; assay type: cell-based; details: Mycobacterium tuberculosis; media with cholesterol and acetate
[5] = system: Mtb; experiment: Quantification of bacterial cAMP in Mtb; assay type: cell-based, Mycobacterium tuberculosis
[6] = system: Mtb; assay type: cell-based, Mycobacterium tuberculosis; details: for 14CO2 release from [4-14C]-cholesterol: 10 μM
[7] = system: Mtb; assay type: cell-based, Mycobacterium tuberculosis; details: media containing fatty acid
[8] = system: Mtb; assay type: cell-based, Mycobacterium tuberculosis; details: 10 μM
[9] = system: Erdman Mtb; experiment: Mouse infection, BALB/c; assay type: in vivo, BALB/c mice
[10] = system: Erdman Mtb; experiment: Mouse infection, C3HeB/FeJ; assay type: in vivo, C3HeB/FeJ mice; details: 50 mg/kg oral once-daily weeks 4-8, intranasal infection
[11] = 0.98 µM, pH 7.2
Description: Liver microsomal stability
(§1) Liver microsomes from mouse (Xenotech), human (Corning) rat (Xenotech) and dog (Xenotech)
(§2) were prepared in potassium phosphate buf fer (100 mM) pH 7. 2. Experimental compounds were
(§3) dissolved in DMSO (100%) to a stock concentration of 10 mmol. A working compound solution
(§4) was made by diluting 5 µL of compound stock into 495 µL of acetonitrile (100%) to the final
(§5) concentration of compound (100 µM) and acetonitrile (99%). Similarly, positive control
(§6) compounds (Testosterone, Dichlofenac, and Propafenone) were dissolved in DMSO (100% to a
(§7) stock concentration of 10 mM in DMSO, and were diluted with 495 µL of acetonitrile (100%) to
(§8) the final concentration of compound (100 µM) and acetonitrile (99%). NADPH•4Na was dissolved
(§9) into a 10 mM MgCl2 solution (10 unit/mL) generating as a 10x cofactor stock. Pre-warmed
(§10) incubation plates were filled with 445 µL potassium phosphate buffer and incubated for 10 min at
(§11) 37°C with constant shaking. Liver microsomes (54 µL) liver and NADPH stock (6 µL) were added
(§12) to the plates. Working solution of compounds (5 µL) was added into the incubation plates
(§13) containing microsomes and mixed thoroughly before incubating at 37°C for 60 min under constant
(§14) shaking at 100 rpm. Reactions were stopped by the addition of 100 µl cold acetonitrile (100%)
(§15) containing the internal standards tolbutamide (200 ng/mL) and labetalol (200 ng/mL). All plates
(§16) were shaken for 10 min, then centrifuged at 4000 rpm for 20 minutes at 4°C. The cell free
(§17) supernatant was transferred into HPLC water and mixed by shaking the plate for 10 min minutes
(§18) prior to metabolite quantification by LC-MS/MS a nalysis.
(§19) The equation of first order kinetics was used to calculate T1/2 and CLin t(mic ) (µL/min/mg):
Equation of first order kinetics:
(§20) <=@(#<S) X= Y<@Z[ \] #_⁄#‘ #<SZ[a[#$b cZ[@L<= <= ZL$S@<[=
𝐶𝐿 = 𝐶𝐿 ∙ #_ #<SZ[a[#La ∙ _ b<Y LZ
(§21) <=@(b<Y LZ) <=@(#<S) _ b<Y LZ D_ e[fg hL<_i@
(§22) T1/2 is half life and CLin t ( mic ) is the intrinsic clearance
(§23) CLin t ( mic ) = 0.693/half life/mg microsome protein per mL
(§24) CLin t(l iv e r) = CLin t ( mic ) * mg microsomal protein/g liver weight * g liver weight/kg body weight
Extraction ratio calculation
(§25) Extraction ratio (ER) = CLH/QH= CLint(liver) / (CLint(liver) + Qh)
Qh is Hepatic Blood Flow (mL/min/kg)

[12] = 0.98 µM, pH 7.2; remark: listed apart in the source
Description: Liver microsomal stability
as §1, §2, §3, §4, §5, §6, §7, §8, §9, §10, §11, §12, §13, §14, §15, §16, §17, §18, §19
Equation of first order kinetics:
as §20
𝐶𝐿 = 𝐶𝐿 ∙ #_ #<SZ[a[#La ∙ _ b<Y LZ
as §21, §22, §23, §24
Extraction ratio calculation
as §25
Qh is Hepatic Blood Flow (mL/min/kg)

[13] = system: MKR strain of Mtb; parameters: method as in PMID 33542438; details: infected macrophages ref 13; cited from earlier work
[14] = in vitro; details: human
[15] = in vitro; details: human; remark: listed apart in the source
[16] = in vitro; details: CD-1, mouse, plasma
[17] = system: CYP1A2, CYP2C9, CYP2C19, CYP2D6, CYP3A4; experiment: in vitro; details: human, pH 7.2
[18] = physchem; details: pH 6.8, aqueous buffer, kinetic from dmso stock
[19] = target: hERG potassium channel (Homo sapiens, UniProt Q12809); experiment: Manual patch clamp assay for hERG inhibition
[20] = 0.98 µM, pH 7.2; remark: listed apart in the source
Description: Liver microsomal stability
as §1, §2, §3, §4, §5, §6, §7, §8, §9, §10, §11, §12, §13
(§26) shaking at 100 rpm. Reactions were stopped by the addition of 100 µl cold acetonitrile (100%) […]
(§27) prior to metabolite quantification by LC-MS/MS a nalysis. […]

[21] = 0.98 µM, pH 7.2; remark: listed apart in the source
Description: Liver microsomal stability
as §1, §2, §3, §4, §5, §6, §7, §8, §9, §10, §11, §12, §13, §26, §27

[22] = in vitro; details: human, plasma
[23] = 50 mg/kg oral once-daily weeks 4-8, intranasal infection, BALB/c
[24] = 30mg/kg oral once-daily weeks 4-8, intranasal infection, BALB/c

Chain of hERG potassium channel (Q12809 whole entry): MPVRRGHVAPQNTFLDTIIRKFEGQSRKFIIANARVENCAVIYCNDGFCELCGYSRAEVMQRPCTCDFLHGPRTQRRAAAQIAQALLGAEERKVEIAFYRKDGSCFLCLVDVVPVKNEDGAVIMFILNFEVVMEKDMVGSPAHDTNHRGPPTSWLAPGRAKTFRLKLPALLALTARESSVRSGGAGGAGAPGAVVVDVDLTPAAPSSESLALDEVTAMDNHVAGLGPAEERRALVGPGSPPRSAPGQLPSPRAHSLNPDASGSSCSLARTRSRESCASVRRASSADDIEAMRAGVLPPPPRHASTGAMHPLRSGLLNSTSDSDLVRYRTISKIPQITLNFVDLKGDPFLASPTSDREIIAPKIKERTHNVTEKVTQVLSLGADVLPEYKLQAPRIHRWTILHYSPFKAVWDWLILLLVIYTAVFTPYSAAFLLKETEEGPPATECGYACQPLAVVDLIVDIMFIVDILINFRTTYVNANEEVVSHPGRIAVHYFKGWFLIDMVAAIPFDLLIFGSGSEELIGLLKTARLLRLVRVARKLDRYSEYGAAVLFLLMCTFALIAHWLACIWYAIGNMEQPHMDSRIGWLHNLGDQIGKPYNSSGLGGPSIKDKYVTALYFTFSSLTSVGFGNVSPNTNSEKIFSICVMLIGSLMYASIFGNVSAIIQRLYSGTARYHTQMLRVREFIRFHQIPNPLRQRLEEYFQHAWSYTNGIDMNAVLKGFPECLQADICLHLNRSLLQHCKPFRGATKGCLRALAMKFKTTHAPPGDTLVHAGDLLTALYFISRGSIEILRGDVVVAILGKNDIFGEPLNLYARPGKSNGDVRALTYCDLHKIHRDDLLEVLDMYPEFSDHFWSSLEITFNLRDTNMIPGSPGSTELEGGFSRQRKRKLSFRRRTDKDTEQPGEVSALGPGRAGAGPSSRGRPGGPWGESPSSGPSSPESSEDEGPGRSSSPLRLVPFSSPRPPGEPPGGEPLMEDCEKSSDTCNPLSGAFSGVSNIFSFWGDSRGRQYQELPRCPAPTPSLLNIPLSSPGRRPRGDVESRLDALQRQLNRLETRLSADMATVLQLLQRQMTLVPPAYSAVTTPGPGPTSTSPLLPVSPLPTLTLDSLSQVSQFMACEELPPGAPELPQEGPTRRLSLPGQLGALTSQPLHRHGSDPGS

Row | Structure (SMILES) | EC50 [1] [µM] | EC50 [3] [µM] | EC50 [4] [µM] | ER mouse [11] | ER human [12] | CC50 at 72 h [14] [µM] | CC50 at 72 h [15] [µM] | fraction unbound at 4 h [16] | IC50 at 10 min [17] [µM] | solubility at 24 h [18] [µM] | IC50 [19] [µM] | EC50 ([2]; read-out: Cholesterol EC50) [µM] | ER rat [20] | ER dog [21] | fraction unbound at 4 h [22] | further results
1 | Cc1nonc1CC(=O)N1CCC(n2nnc(-c3ccc(F)cc3)n2)CC1 [V-59, 1-(4-(5-(4-fluorophenyl)-2H-tetrazol-2-yl)piperidin-1-yl)-2-(4-methyl-1,2,5-oxadiazol-3-yl)ethan-1-one] | 0.3 | > 50 | > 50 | 0.3 | 0.3 | > 20 | > 20 | 0.173 | > 30 | 4.63 (≈ 1.72 µg/mL) | 8.9 |  |  |  |  | EC50 ([2]; read-out: EC50 in cholesterol media): 0.7 µM; cAMP induction [5]: ~ 70 fold; cAMP induction ([5]; CompFull strain, 24 hours): ~ 140 fold; decrease of 14CO2 release from [4-14C]-cholesterol [6]: ~ 89%; 14CO2 release from [4-14C]-cholesterol ([6]; CompD204 strain lacking cyclase domain): did not prevent; 14CO2 release from [4-14C]-cholesterol ([6]; CompFull strain): inhibited; 14CO2 released from breakdown of [U-14C]-palmitate [7]: no measurable effect; decrease of prpD'::GFP signal ([8]; CompFull strain): ~ 90%; decrease of prpD'::GFP signal ([8]; WT): ~ 50%; prpD'::GFP signal ([8]; ΔRv1625c or CompD204 strains, cholesterol media or macrophage infection): did not impact; reduction in lung CFUs [9, 23]: ~ 0.4 log10; reduction of extent of lung inflammation [9, 23]: ~ 50%; reduction in lung CFUs [10]: ~ 0.5 log10; intracellular survival of MKR strain [13]: selectively reduced intracellular survival
2 | Cc1nonc1CC(=O)N1CCC(c2nc(-c3ccc(F)cc3)no2)CC1 [mCIS635] | 0.27 | > 50 | > 50 | 0.4 | 0.3 | > 20 | > 20 | 0.056 | > 50 | 34.4 (≈ 12.8 µg/mL) | 9.5 | 0.15 |  |  |  | 
3 | Cn1ncnc1CC(=O)N1CCC(c2nc(-c3ccc(Cl)c(Cl)c3)no2)CC1 [mCLB073, 1-(4-(3-(3,4-dichlorophenyl)-1,2,4-oxadiazol-5-yl)-1-piperidinyl)-2-(2-methyl-2H-1,2,4-triazol-3-yl)-1-ethanone] | 1.2 | > 50 | > 50 | 0.3 | 0.3 | > 20 | > 20 | 0.037 | > 50 | 160 (≈ 67.4 µg/mL) | 13.8 | 0.027 | 0.2 | 0.3 | 0.024 | cAMP synthesis ([5]; Figs 3B and S2C): activates cAMP synthesis; decrease of extent of lung pathology [9, 24]: ~ 45%; reduction in lung CFUs [9, 24]: ~ 0.4 log10; bacterial burden in the lungs when added to a sub-optimal dose of rifampicin ([9]; mouse, in vivo): did not increase the bacterial burden; reduction in lung CFUs ([9]; mouse, in vivo): ~ 0.4 log10
4 | Cn1ncnc1CC(=O)N1CC2CC1CC2c1nc(-c2ccc(Cl)c(F)c2)no1 (centres unmarked) [mCLF178] | > 20 | > 50 |  | 0.3 | 0.3 | > 20 | > 20 | 0.116 | > 30 | 186 (≈ 77.5 µg/mL) | 22.9 | 0.083 | 0.2 | 0.3 | 0.111 | 
